# Results from patent US4068070A, “α-Cyanoamine compounds and a process for producing the same” (Fuji Chemical Industry Co., Ltd., priority 1974, dated 1978).
# Tests used:
# Assay type in all cases: in vivo, mongrel adult dogs
# [1] = test system: arterial mean blood pressure; assay: Effects on arterial mean blood pressure
# Method in brief: (§1)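 Open-chest, pentobarbital-anesthetized mongrel dogs (male and female, about 10 kg) received compounds intravenously via the brachial vein; vehicles were 0.2% CMC suspension, HCl solution (pH 6) or physiological saline. Mean arterial pressure came from a carotid-aortic cannula transducer, aortic flow from an electromagnetic flowmeter at the aortic root.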
# aortic blood flow = assay: Effects on aortic blood flow
# Method in brief: as §1
# coronary sinus out flow = assay: Effects on coronary sinus out flow
# Method in brief: (§2)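 Dog, mongrel, ~10 kg, thoracotomized, pentobarbital anesthesia. Dosing i.v. (brachial), vehicle CMC 0.2%, HCl pH 6 or saline. Coronary sinus outflow by electromagnetic flowmeter, coronary sinus pO2 by macro electrode, both via Morawitz cannulation.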
# [2] = test system: coronary sinus oxygen tension; assay: Effects on coronary sinus oxygen tension
# Method in brief: as §2
# heart rate = assay: Effects on heart rate
# Method in brief: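 Adult mongrel dogs of both sexes were anesthetized with pentobarbital and thoracotomized. Test agents, suspended or dissolved in 0.2% CMC, pH 6 HCl solution or saline, were injected intravenously into the brachial vein. Hemodynamic and coronary sinus parameters were then recorded.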
structure (smiles),measurement,setting,value
COc1ccc(C(C#N)N2CCNCC2)cc1OC (stereo not shown) [Compound F],"Changes (%) of basal values, arterial mean blood pressure","[1]; 2.0 mg/kg i.v., 1 min",-1.3%
same,"Changes (%) of basal values, arterial mean blood pressure","[1]; 2.0 mg/kg i.v., 5 min",-4.9%
same,"Changes (%) of basal values, arterial mean blood pressure","[1]; 2.0 mg/kg i.v., 10 min",-3.3%
same,"Changes (%) of basal values, arterial mean blood pressure","[1]; 2.0 mg/kg i.v., 20 min",-2.1%
same,"Changes (%) of basal values, arterial mean blood pressure","[1]; 2.0 mg/kg i.v., 30 min",-0.4%
same,"Changes (%) of basal values, arterial mean blood pressure","[1]; 2.0 mg/kg i.v., 40 min",0%
same,"Changes (%) of basal values, arterial mean blood pressure","[1]; 2.0 mg/kg i.v., imm.",+2.3%
same,"Changes (%) of basal values, arterial mean blood pressure","[1]; 6.0 mg/kg i.v., 1 min",+15.8%
same,"Changes (%) of basal values, arterial mean blood pressure","[1]; 6.0 mg/kg i.v., 5 min",-9.3%
same,"Changes (%) of basal values, arterial mean blood pressure","[1]; 6.0 mg/kg i.v., 10 min",-12.5%
same,"Changes (%) of basal values, arterial mean blood pressure","[1]; 6.0 mg/kg i.v., 20 min",-10.0%
same,"Changes (%) of basal values, arterial mean blood pressure","[1]; 6.0 mg/kg i.v., 30 min",-5.2%
same,"Changes (%) of basal values, arterial mean blood pressure","[1]; 6.0 mg/kg i.v., 40 min",-2.8%
same,"Changes (%) of basal values, arterial mean blood pressure","[1]; 6.0 mg/kg i.v., imm.",+16.0%
same,Effects on arterial mean blood pressure (in words),"[1]; i.v., anesthetized dogs","an increase in blood pressure was observed immediately after administration, but thereafter, a long duration hypotensive effect was observed"
same,"Changes (%) of basal values, aortic blood flow","aortic blood flow; 2.0 mg/kg i.v., 1 min",+0.7%
same,"Changes (%) of basal values, aortic blood flow","aortic blood flow; 2.0 mg/kg i.v., 5 min",-4.1%
same,"Changes (%) of basal values, aortic blood flow","aortic blood flow; 2.0 mg/kg i.v., 10 min",-1.2%
same,"Changes (%) of basal values, aortic blood flow","aortic blood flow; 2.0 mg/kg i.v., 20 min",0%
same,"Changes (%) of basal values, aortic blood flow","aortic blood flow; 2.0 mg/kg i.v., 30 min",0%
same,"Changes (%) of basal values, aortic blood flow","aortic blood flow; 2.0 mg/kg i.v., 40 min",0%
same,"Changes (%) of basal values, aortic blood flow","aortic blood flow; 2.0 mg/kg i.v., imm.",+9.2%
same,"Changes (%) of basal values, aortic blood flow","aortic blood flow; 6.0 mg/kg i.v., 1 min",+12.1%
same,"Changes (%) of basal values, aortic blood flow","aortic blood flow; 6.0 mg/kg i.v., 5 min",-2.2%
same,"Changes (%) of basal values, aortic blood flow","aortic blood flow; 6.0 mg/kg i.v., 10 min",-2.0%
same,"Changes (%) of basal values, aortic blood flow","aortic blood flow; 6.0 mg/kg i.v., 20 min",-1.2%
same,"Changes (%) of basal values, aortic blood flow","aortic blood flow; 6.0 mg/kg i.v., 30 min",0%
same,"Changes (%) of basal values, aortic blood flow","aortic blood flow; 6.0 mg/kg i.v., 40 min",0%
same,"Changes (%) of basal values, aortic blood flow","aortic blood flow; 6.0 mg/kg i.v., imm.",+20.5%
same,Effects on aortic blood flow (in words),"aortic blood flow; i.v., anesthetized dogs","an increase in blood flow immediately after administration, followed by a decrease in blood flow"
same,"Changes(%) of basal values, coronary sinus out flow","coronary sinus out flow; 2.0 mg/kg i.v., 1 min",+2.9%
same,"Changes(%) of basal values, coronary sinus out flow","coronary sinus out flow; 2.0 mg/kg i.v., 5 min",-1.7%
same,"Changes(%) of basal values, coronary sinus out flow","coronary sinus out flow; 2.0 mg/kg i.v., 10 min",-4.4%
same,"Changes(%) of basal values, coronary sinus out flow","coronary sinus out flow; 2.0 mg/kg i.v., 20 min",-3.1%
same,"Changes(%) of basal values, coronary sinus out flow","coronary sinus out flow; 2.0 mg/kg i.v., 30 min",-1.0%
same,"Changes(%) of basal values, coronary sinus out flow","coronary sinus out flow; 2.0 mg/kg i.v., 40 min",-0.2%
same,"Changes(%) of basal values, coronary sinus out flow","coronary sinus out flow; 2.0 mg/kg i.v., imm.",+12.4%
same,"Changes(%) of basal values, coronary sinus out flow","coronary sinus out flow; 6.0 mg/kg i.v., 1 min",+68.6%
same,"Changes(%) of basal values, coronary sinus out flow","coronary sinus out flow; 6.0 mg/kg i.v., 5 min",+7.4%
same,"Changes(%) of basal values, coronary sinus out flow","coronary sinus out flow; 6.0 mg/kg i.v., 10 min",+0.1%
same,"Changes(%) of basal values, coronary sinus out flow","coronary sinus out flow; 6.0 mg/kg i.v., 20 min",-8.2%
same,"Changes(%) of basal values, coronary sinus out flow","coronary sinus out flow; 6.0 mg/kg i.v., 30 min",-5.3%
same,"Changes(%) of basal values, coronary sinus out flow","coronary sinus out flow; 6.0 mg/kg i.v., 40 min",-2.1%
same,"Changes(%) of basal values, coronary sinus out flow","coronary sinus out flow; 6.0 mg/kg i.v., imm.",+74.5%
same,Effects on coronary sinus out flow (in words),"coronary sinus out flow; i.v., anesthetized dogs","increased markedly coronary sinus out flow immediately after administration, effect of which was, however, relatively transitory"
same,"Changes(%) of basal values, coronary sinus oxygen tension","[2]; 2.0 mg/kg i.v., 1 min",+1.4%
same,"Changes(%) of basal values, coronary sinus oxygen tension","[2]; 2.0 mg/kg i.v., 5 min",-1.1%
same,"Changes(%) of basal values, coronary sinus oxygen tension","[2]; 2.0 mg/kg i.v., 10 min",-1.4%
same,"Changes(%) of basal values, coronary sinus oxygen tension","[2]; 2.0 mg/kg i.v., 20 min",-0.8%
same,"Changes(%) of basal values, coronary sinus oxygen tension","[2]; 2.0 mg/kg i.v., 30 min",0%
same,"Changes(%) of basal values, coronary sinus oxygen tension","[2]; 2.0 mg/kg i.v., 40 min",0%
same,"Changes(%) of basal values, coronary sinus oxygen tension","[2]; 2.0 mg/kg i.v., imm.",+10.9%
same,"Changes(%) of basal values, coronary sinus oxygen tension","[2]; 6.0 mg/kg i.v., 1 min",+20.3%
same,"Changes(%) of basal values, coronary sinus oxygen tension","[2]; 6.0 mg/kg i.v., 5 min",+3.9%
same,"Changes(%) of basal values, coronary sinus oxygen tension","[2]; 6.0 mg/kg i.v., 10 min",+1.0%
same,"Changes(%) of basal values, coronary sinus oxygen tension","[2]; 6.0 mg/kg i.v., 20 min",-4.1%
same,"Changes(%) of basal values, coronary sinus oxygen tension","[2]; 6.0 mg/kg i.v., 30 min",-1.2%
same,"Changes(%) of basal values, coronary sinus oxygen tension","[2]; 6.0 mg/kg i.v., 40 min",-0.3%
same,"Changes(%) of basal values, coronary sinus oxygen tension","[2]; 6.0 mg/kg i.v., imm.",+20.1%
same,Effects on coronary sinus oxygen tension (in words),"[2]; i.v., anesthetized dogs",slightly transitory as compared with those of compounds as mentioned above
same,increased oxygen tension,"[2]; i.v., anesthetized dogs",about 20%
same,"Changes(%) of basal values, heart rate","heart rate; 2.0 mg/kg i.v., 1 min",+2.6%
same,"Changes(%) of basal values, heart rate","heart rate; 2.0 mg/kg i.v., 5 min",-1.5%
same,"Changes(%) of basal values, heart rate","heart rate; 2.0 mg/kg i.v., 10 min",-2.3%
same,"Changes(%) of basal values, heart rate","heart rate; 2.0 mg/kg i.v., 20 min",-1.8%
same,"Changes(%) of basal values, heart rate","heart rate; 2.0 mg/kg i.v., 30 min",-0.7%
same,"Changes(%) of basal values, heart rate","heart rate; 2.0 mg/kg i.v., 40 min",0%
same,"Changes(%) of basal values, heart rate","heart rate; 2.0 mg/kg i.v., imm.",+1.4%
same,"Changes(%) of basal values, heart rate","heart rate; 6.0 mg/kg i.v., 1 min",+3.7%
same,"Changes(%) of basal values, heart rate","heart rate; 6.0 mg/kg i.v., 5 min",-2.2%
same,"Changes(%) of basal values, heart rate","heart rate; 6.0 mg/kg i.v., 10 min",-3.6%
same,"Changes(%) of basal values, heart rate","heart rate; 6.0 mg/kg i.v., 20 min",-3.3%
same,"Changes(%) of basal values, heart rate","heart rate; 6.0 mg/kg i.v., 30 min",-2.0%
same,"Changes(%) of basal values, heart rate","heart rate; 6.0 mg/kg i.v., 40 min",-1.4%
same,"Changes(%) of basal values, heart rate","heart rate; 6.0 mg/kg i.v., imm.",-7.2%
same,Effects on heart rate (in words),"heart rate; i.v., anesthetized dogs",slight negative chronotropic effects accompanied by an increase in heart rate immediately after administration
